Results published in patent US20200333357A1, “NOVEL TFEB PATHWAY AGONISTS FOR METABOLIC DISEASES AND AGEING” (The Board of Regents of the University of Texas System, priority 2017, published 2020).
“Also recorded” adds a separate entry of the source. Counter-ions that a name gives are not always drawn.

Columns and labels:
[1] = system: TFEB; assay: GFP-TFEB nuclear translocation (high-content screen, dose-response, confocal imaging); format: cell-based, human; conditions: for effect of calcineurin inhibition (FK506, CsA, siPPP3CB) on TFEB activation: 5 μM FK506, 10 μM CsA or siPPP3CB; for effect of Compound C (AMPK inhibitor) and STO-609 (CaMKKβ inhibitor) on induced TFEB nuclear translocation: 10 μM compound C, 25 μM STO-609, 4 hr; for effect of IP3R inhibitor Xestosporin C or siIP3R1 on induced TFEB nuclear translocation: 25 μM Xesto 1 hr pretreatment, time-dependent; for effect of GPN pretreatment (lysosomal Ca2+ depletion) on induced TFEB nuclear translocation: 200 μM GPN, 30 min pretreatment; for hit status in the TFEB screen overlapping with the autophagy (GFP-LC3) screen: compounds added for 4 hr, overlap with top 30 hits of autophagy screen; for effect of RNAi-mediated MCOLN1 depletion on induced TFEB nuclear translocation: siMCOLN1
Experimental: GFP-TFEB HeLa cells were seeded in 384-well plates. Compounds were added for 4 hr the following day. Bafilomycin A1 (250 nM) treated cells were used as positive controls and DMSO-treated cells as negative controls. […] Images were collected using 405 nm and 488 nm laser lines with DAPI and FITC emission filters. Images were analyzed using the GE IN Cell Analyzer Workstation software. Briefly, nuclei were segmented using the Hoechst channel and the cytoplasm was segmented using the GFP channel. For each cell, the mean GFP intensity in each compartment was measured and used to calculate the nuclear to cytoplasmic (N/C) TFEB-GFP ratio. The same method as mentioned above was used to generate the top 30 compounds with highest condensed activity values and robust Z score values.
GFP-TFEB HeLa cells treated with compounds or DMSO were fixed and stained with Hoechst. Images from at least 3 different fields per sample were acquired using a 40× objective on a Zeiss confocal microscope and analyzed with ImageJ. 20-30 cells were evaluated from each image for each sample, and 3 independent experiments were performed to generate the graphed values.

[2] = system: C. elegans; assay: C. elegans lifespan analysis; format: in vivo; conditions: for Lifespan increase (%): vs DMSO
Experimental: The C. elegans mutant strain, fem-1(hc17ts) IV; dal-1(dt2300), obtained from the Caenorhabditis Genetics Center at the University of Minnesota, was cultured on Nematode Growth Medium (NGM) plates seeded with the E. coli strain OP50 and consistently maintained at 15° C. For lifespan assays, a total of 12 age-synchronized nematode adults were transferred to eight replicate NGM plates and grown at 25° C. to ensure sterility. Age synchronization was achieved through standard hypochlorite treatments. Eggs were placed on NGM plates supplemented with Streptomycin (100 μg ml-1) and seeded with the E. coli strain, OP50. For compound testing, 200 μl of 10 μM Ikarugamycin in 5% DMSO was spotted directly onto OP50 seeded NGM plates. Control plates were prepared by spotting 200 μl of 5% DMSO directly onto OP50 seeded NGM plates. For the first 10 days of adulthood, C. elegans were scored once a day as dead or alive by touch stimulation with a platinum wire. After day 10, animals were scored every other day. Nematodes which crawling off the agar plates were censored from subsequent lifespan analysis. Kaplan-Meier statistical analysis was performed using Prism 7 software. Lifespan experiments were done on two separate occasions.

[3] = system: HLH-30; assay: HLH-30::GFP nuclear localization assay; format: in vivo, C. elegans; conditions: dal-1(dt2300); sqIs19 worms, 5 μM IKA
Experimental: Adult TX1941 dal-1(dt2300); sqIs19 [hlh-30p::hlh-30::GFP rol-6(+)] worms were placed on NGM plates with either a test chemical or 5% DMSO. GFP was scored at various intervals on live worms without mounting using a Zeiss Axio Zoom. V16 fluorescence dissecting microscope equipped with Axiocam 503. No difference was observed between 2 hour and overnight treatment.

[4] = system: mTORC1; assay: TSC2 dependence of mTORC1 inhibition and TFEB activation in p53-/- and p53-/-, TSC2-/- MEFs; format: cell-based, mouse; conditions: p53-/- vs p53-/-
[5] = Body weight of normal-diet-fed (lean) mice; format: in vivo, mouse; conditions: 2.5 mg/kg DG
[6] = system: mice under fed and fast conditions; assay: Short-term starvation and chloroquine-induced acute hepatic lipid accumulation in mice; format: in vivo, mouse
Experimental: SFIGS. […] (SFIG. 6A) The body weight (left y-axis, solid symbols) and food intake (right y-axis, open symbols) measured in normal-diet-fed mice treated with vehicle or 2.5 mg/kg DG. (SFIG. 6B) Drug release curves of AD (upper panel) and IKA (lower panel) in PBS. […] (SFIG. 6F) Cells were treated with various doses DG, AD and IKA for 4 hours, and cell viability was measured immediately or after 72 hours. Dose response curves were simulated using ImageJ. (SFIG. 6G) H&E staining of heart, spleen and kidney sections from mice treated with DG, AD, IKA and their corresponding controls. Scale bar, 100 μm. (SFIG. 6H) H&E staining of liver and heart sections as well as ORO and p62/SQSTM1 IHC staining of liver sections from mice under fed and fast conditions with orally injected DG and intraperitoneally injected CQ, individually and jointly, or their corresponding control (Saline). Scale bar, 50 μm. (SFIG. 6I) The body weight of mice after the treatment described in SFIG. 6H. (SFIGS. 6J-L) Total serum levels of triglyceride, cholesterol and glucose of mice after the treatment described in SFIG. 6G.

[7] = system: HepG2 cells; assay: Oleic acid-induced lipid accumulation (oil red O staining); conditions: 1 mM oleic acid; 370 nM DG, 3.3 μM AD and IKA
[8] = system: HeLa cells; assay: Cellular ROS level (CellROX Green); format: cell-based, human; conditions: 4 hrs
Source text: SFIGS. 5A-I. Small-molecule activators of TFEB engage different sources of Ca. (SFIG. 5A) HeLa cells were pretreated with or without N-acetyl-cysteine (NAC) for 1 hr and then treated with tert-butyl hydroperoxide (TBHP) or AD for 4 hrs. TBHP and NAC were used as positive and negative controls. A ROS-sensitive DNA dye CellROX Green was used to detect cellular ROS levels after these treatments. Endogenous TFEB localization was also shown. (SFIG. 5B) Quantification of the fluorescent intensity of CellROX Green in cells treated as in a was done by a plate reader. (SFIG. 5C) Quantification of endogenous TFEB nuclear translocation in SFIG. 5A. (SFIG. 5D) Cells were pretreated with or without 25 μM IP3R inhibitor Xestosporine C (Xesto) for 1 hr and then treated with DG, AD and IKA for indicated time. Quantification of TFEB translocation was shown in SFIG. 5E-G (graphs represent mean±s.d. **p<0.01, ***p<0.001, ****p<0.0001). (SFIG. 5H-I) RNA-interference were used to knock down inositol […] receptor type 1 (IP3R1) in GFP-TFEB cells before they were treated with DG, AD and IKA. siLONRF1 was used as a negative control. TFEB translocation percentage was quantified from images as shown in SFIG. 5I (mean±s.d. for n=3 independent experiments, ****p<0.0001). Scale bar, 20 μm.

CC[C@H]1[C@@H]2C=C[C@@H]3[C@H]4C/C=C\C(=O)NCCC[C@@H]5NC(=O)/C(=C(O)/C=C/[C@@H]4C[C@@H]3[C@H]2C[C@H]1C)C5=O [IKA, ikarugamycin]
reversal of effect on TFEB by cell-permeable pyruvate [1]: reversed
effect of thapsigargin (ER Ca2+ depletion) on induced TFEB nuclear translocation ([1]; 300 nM TG, 30 min): selectively decreased
effect of calcineurin inhibition (FK506, CsA, siPPP3CB) on TFEB activation [1]: calcineurin independent
effect of Compound C (AMPK inhibitor) and STO-609 (CaMKKβ inhibitor) on induced TFEB nuclear translocation [1]: inhibited
effect of IP3R inhibitor Xestosporin C or siIP3R1 on induced TFEB nuclear translocation [1]: attenuated
effect of GPN pretreatment (lysosomal Ca2+ depletion) on induced TFEB nuclear translocation [1]: almost no effect
lifespan of fem-1(−);dal-1(−) animals ([2]; 5 μM IKA vs DMSO): significantly extended
75th % ([2]; 1st experiment): 16 days
Mean Lifespan ± s.e.m ([2]; 1st experiment): 21.8 ± 0.6 days
Median lifespan ([2]; 1st experiment): 22 days
Lifespan increase (%) ([2]; 1st experiment): 22.2%
Mean Lifespan ± s.e.m ([2]; 2nd experiment): 23.0 ± 0.5 days
Median lifespan ([2]; 2nd experiment): 24 days
Lifespan increase (%) ([2]; 2nd experiment): 22.3%
nuclear accumulation of GFP-tagged HLH30 within intestinal cells in adults [3]: induce nuclear accumulation
dependence of mTORC1 inhibition / TFEB activation on TSC2 [4]: TSC2-dependent

C[C@H]1O[C@@H](O[C@H]2[C@@H](O)C[C@H](O[C@H]3[C@@H](O)C[C@H](O[C@H]4CC[C@@]5(C)[C@H](CC[C@@H]6[C@@H]5C[C@@H](O)[C@]5(C)[C@@H](C7=CC(=O)OC7)CC[C@]65O)C4)O[C@@H]3C)O[C@@H]2C)C[C@H](O)[C@@H]1O [DG, digoxin, reference compound]
body weight of lean mice [5]: did not alter
reversal of effect on TFEB by cell-permeable pyruvate [1]: not
effect of Compound C (AMPK inhibitor) and STO-609 (CaMKKβ inhibitor) on induced TFEB nuclear translocation [1]: not
effect of IP3R inhibitor Xestosporin C or siIP3R1 on induced TFEB nuclear translocation [1]: attenuated
effect of GPN pretreatment (lysosomal Ca2+ depletion) on induced TFEB nuclear translocation [1]: sufficient to disrupt TFEB nuclear translocation
effect of calcineurin perturbation on TFEB activation ([1]; compound at EC50): inhibited to some extent
effect of calcineurin perturbation on TFEB activation ([1]; compound at EC90): resistant
hit status in the TFEB screen overlapping with the autophagy (GFP-LC3) screen [1]: top 18 hits; also recorded: top scoring hits
effect of RNAi-mediated MCOLN1 depletion on induced TFEB nuclear translocation [1]: suppressed
p62/SQSTM1 accumulation in liver ([6]; fast, CQ, DG oral): reduction
fast-induced hepatic lipid accumulation ([6]; overnight fast, CQ intraperitoneal, DG oral co-administration): improved
oleic acid-induced lipid accumulation in human hepatocytes [7]: significantly ameliorated

CCCCC(CC)CNC(=N)NC(=N)NCCCCCCNC(=N)NC(=N)NCC(CC)CCCC (centres unmarked) [AD, alexidine dihydrochloride]
ROS production [8]: comparable ROS production
reversal of effect on TFEB by cell-permeable pyruvate [1]: reversed
effect of calcineurin inhibition (FK506, CsA, siPPP3CB) on TFEB activation [1]: block TFEB activation
effect of Compound C (AMPK inhibitor) and STO-609 (CaMKKβ inhibitor) on induced TFEB nuclear translocation [1]: inhibited
effect of IP3R inhibitor Xestosporin C or siIP3R1 on induced TFEB nuclear translocation [1]: attenuated
effect of GPN pretreatment (lysosomal Ca2+ depletion) on induced TFEB nuclear translocation [1]: sufficient to disrupt TFEB nuclear translocation
hit status in the TFEB screen overlapping with the autophagy (GFP-LC3) screen ([1]; dihydrochloride): top 18 hits; also recorded: top scoring hits
effect of RNAi-mediated MCOLN1 depletion on induced TFEB nuclear translocation [1]: suppressed
oleic acid-induced lipid accumulation in human hepatocytes [7]: significantly ameliorated
dependence of mTORC1 inhibition / TFEB activation on TSC2 [4]: TSC2-dependent
